{"source": "patent US8445677B2", "about": "“Substituted pyrimidyl guanidine derivatives having anticancer activity” (University of Southern California, priority 2008, dated 2013)", "note": "Where “and” joins values, the source holds several entries; their conditions need not be identical. Identical values can stand only once."}
{"tested_on": "HEY", "test": "MTT cytotoxicity assay (Example 1)", "type": "cell-based, human", "details": "Homo sapiens, 72 h", "from_the_text": "(§1) Human breast cancer cells MDA-MB-435 were purchased from the American Type Culture Collection (Manassas, Va.). The HCT116 p53+/+ and HCT116 p53−/− cells were kindly provided by Dr. Bert Vogelstein (Johns Hopkins Medical Institutions, Baltimore, Md.). The human ovarian carcinoma cell line (HEY) which is naturally resistant to cisplatin, was kindly provided by Dr. Louis Dubeau, University of Southern California (USC) Norris Cancer Center, and NIH3T3 normal mouse fibroblast cells were kindly provided by Dr. Michael Press from USC. HEY and NIH3T3 cells were maintained as monolayer cultures in RPMI, HCT 116 cells in McCoy1s5A media and MDA-MB 435 in DMEM. Media were purchased from (Mediatech, Virginia) and supplemented with 10% fetal bovine serum (Gemini-Bioproducts, Woodland, Calif.), 2 mM L-glutamine and 5% Penicillin/streptomycin from Bio whittaker were purchased from VWR. Cells were incubated at 37° C. in a humidified atmosphere of 5% CO2. To remove the adherent cells from the flask for passaging and counting, cells were washed with PBS without calcium or magnesium, incubated with a small volume of 0.25% trypsin-EDTA solution (Sigma-Aldrich, St. Louis, Mo.) for 5-10 min, and washed with culture medium and centrifuged. All experiments were performed using cells at exponential growth stage. Cells were routinely checked for mycoplasma contamination using a PCR-based assay (Stratagene, Tex., USA).\n(§2) Stock solutions (10 mM) of all compounds were prepared in DMSO and stored at −20° C. Further dilutions were made fresh in PBS or cell-culture media right before cell treatment.\n(§3) Cytotoxicity was assessed by a 3-(4,s-dimethylthiazol-2-yl)-2,5-diphenyltetrazolium bromide (MTT) assay as previously described.^24 Briefly, cells were seeded in 96-well microtiter plates and allowed to attach overnight. Cells were subsequently treated with continuous exposure to the corresponding drug for 72 h. A MTT solution (at a final concentration of 0.5 mglml) was added to each well, and cells were incubated for 4 h at 37° C. After removal of the medium, DMSO was added and the absorbance was read at 570 nm. All assays were done in triplicate. The IC50 was then determined for each drug from a plot of log (drug concentration) versus percentage of cells killed.", "units": {"IC50": "µM"}}
{"smiles": "C1C2CC3CC1CC(C2)C3Nc1nc2nonc2nc1NC1C2CC3CC(C2)CC1C3", "note": "(centres unmarked) [Compound 24]", "IC50": "8 ± 1.7"}
{"smiles": "CCCn1c(=O)c(C(=O)NNC(=O)COc2ccccc2)c(O)c2ccccc21", "note": "[Compound 25]", "IC50": "> 10"}
{"smiles": "CCCCCCc1nc2ccccc2c(=O)n1NC(=O)c1c(O)c2ccccc2n(CC)c1=O", "note": "[Compound 26]", "IC50": 20}
{"smiles": "CCCc1nc2ccccc2c(=O)n1NC(=O)c1c(O)c2cccc3c2n(c1=O)CCC3", "note": "[Compound 27]", "IC50": "> 20"}
{"smiles": "CCCn1c(=O)c(C(=O)Nc2nnc(CC(C)C)s2)c(O)c2ccccc21", "note": "[Compound 29]", "IC50": "> 20"}
{"smiles": "C=CCn1c(=O)c(C(=O)Nc2nc(CC(=O)OCC)cs2)c(O)c2ccccc21", "note": "[Compound 31]", "IC50": "> 10"}
{"smiles": "CCCCn1c(=O)c(C(=O)Nc2nc(CC(=O)OCC)cs2)c(O)c2ccccc21", "note": "[Compound 32]", "IC50": 15}
{"smiles": "CCOc1ccc2nc(NC(=N)/N=C(\\C)c3ccccc3C(=O)O)nc(C)c2c1", "note": "[Compound 34]", "IC50": 7}
{"tested_on": "MDA-MB-435", "test": "MTT cytotoxicity assay (Example 1)", "type": "cell-based, human", "details": "72 h", "from_the_text": "as §1, §2, §3"}
{"smiles": "O=C(O)c1cccc(-c2ccc(C=NNc3nc4nonc4nc3Nc3ccc(F)cc3)o2)c1", "note": "[Compound 15]", "IC50": "2.8 µM and 3 µM"}
{"tested_on": "MDA-MB-435", "test": "MTT cytotoxicity assay (Example 1)", "type": "cell-based, human", "details": "Homo sapiens, MDA-MB-435, 72 h", "from_the_text": "as §1, §2, §3", "units": {"IC50": "µM"}}
{"smiles": "O=C(O)c1cccc(-c2ccc(C=NNc3nc4nonc4nc3Nc3ccc(F)cc3)o2)c1", "note": "[Compound 15]", "IC50": "< 3"}
{"smiles": "C1C2CC3CC1CC(C2)C3Nc1nc2nonc2nc1NC1C2CC3CC(C2)CC1C3", "note": "(centres unmarked) [Compound 24]", "IC50": 9}
{"smiles": "CCCn1c(=O)c(C(=O)NNC(=O)COc2ccccc2)c(O)c2ccccc21", "note": "[Compound 25]", "IC50": "> 20"}
{"smiles": "CCCCCCc1nc2ccccc2c(=O)n1NC(=O)c1c(O)c2ccccc2n(CC)c1=O", "note": "[Compound 26]", "IC50": "> 20"}
{"smiles": "CCCc1nc2ccccc2c(=O)n1NC(=O)c1c(O)c2cccc3c2n(c1=O)CCC3", "note": "[Compound 27]", "IC50": "> 20"}
{"smiles": "CCCn1c(=O)c(C(=O)Nc2nnc(CC(C)C)s2)c(O)c2ccccc21", "note": "[Compound 29]", "IC50": "> 20"}
{"smiles": "C=CCn1c(=O)c(C(=O)Nc2nc(CC(=O)OCC)cs2)c(O)c2ccccc21", "note": "[Compound 31]", "IC50": "> 10"}
{"smiles": "CCCCn1c(=O)c(C(=O)Nc2nc(CC(=O)OCC)cs2)c(O)c2ccccc21", "note": "[Compound 32]", "IC50": 20}
{"smiles": "CCOc1ccc2nc(NC(=N)/N=C(\\C)c3ccccc3C(=O)O)nc(C)c2c1", "note": "[Compound 34]", "IC50": "> 20"}
{"tested_on": "HCT116 p53+/+", "test": "MTT cytotoxicity assay (Example 1)", "type": "cell-based", "details": "Homo sapiens, HCT-116, 72 h, MTT, 72 h", "from_the_text": "as §1, §2, §3", "units": {"IC50": "µM"}}
{"smiles": "C1C2CC3CC1CC(C2)C3Nc1nc2nonc2nc1NC1C2CC3CC(C2)CC1C3", "note": "(centres unmarked) [Compound 24]", "IC50": 6}
{"smiles": "CCCn1c(=O)c(C(=O)NNC(=O)COc2ccccc2)c(O)c2ccccc21", "note": "[Compound 25]", "IC50": 10}
{"smiles": "CCCCCCc1nc2ccccc2c(=O)n1NC(=O)c1c(O)c2ccccc2n(CC)c1=O", "note": "[Compound 26]", "IC50": "> 20"}
{"smiles": "CCCc1nc2ccccc2c(=O)n1NC(=O)c1c(O)c2cccc3c2n(c1=O)CCC3", "note": "[Compound 27]", "IC50": "> 20"}
{"smiles": "CCCn1c(=O)c(C(=O)Nc2nnc(CC(C)C)s2)c(O)c2ccccc21", "note": "[Compound 29]", "IC50": "> 20"}
{"smiles": "C=CCn1c(=O)c(C(=O)Nc2nc(CC(=O)OCC)cs2)c(O)c2ccccc21", "note": "[Compound 31]", "IC50": 20}
{"smiles": "CCCCn1c(=O)c(C(=O)Nc2nc(CC(=O)OCC)cs2)c(O)c2ccccc21", "note": "[Compound 32]", "IC50": "10 ± 1"}
{"smiles": "CCOc1ccc2nc(NC(=N)/N=C(\\C)c3ccccc3C(=O)O)nc(C)c2c1", "note": "[Compound 34]", "IC50": 20}
{"tested_on": "HCT116 p53+/+", "test": "MTT cytotoxicity assay (Example 1)", "type": "cell-based", "details": "MTT, 72 h", "from_the_text": "as §1, §2, §3", "units": {"IC50": "µM"}}
{"smiles": "C1C2CC3CC1CC(C2)C3Nc1nc2nonc2nc1NC1C2CC3CC(C2)CC1C3", "note": "(centres unmarked) [Compound 24]", "IC50": 8}
{"tested_on": "HCT116 p53−/−", "test": "MTT cytotoxicity assay (Example 1)", "type": "cell-based", "details": "Homo sapiens, HCT-116, 72 h, MTT, 72 h", "from_the_text": "as §1, §2, §3", "units": {"IC50": "µM"}}
{"smiles": "C1C2CC3CC1CC(C2)C3Nc1nc2nonc2nc1NC1C2CC3CC(C2)CC1C3", "note": "(centres unmarked) [Compound 24]", "IC50": "9 ± 1"}
{"smiles": "CCCn1c(=O)c(C(=O)NNC(=O)COc2ccccc2)c(O)c2ccccc21", "note": "[Compound 25]", "IC50": "> 10"}
{"smiles": "CCCCCCc1nc2ccccc2c(=O)n1NC(=O)c1c(O)c2ccccc2n(CC)c1=O", "note": "[Compound 26]", "IC50": "> 10"}
{"smiles": "CCCc1nc2ccccc2c(=O)n1NC(=O)c1c(O)c2cccc3c2n(c1=O)CCC3", "note": "[Compound 27]", "IC50": "> 10"}
{"smiles": "CCCn1c(=O)c(C(=O)Nc2nnc(CC(C)C)s2)c(O)c2ccccc21", "note": "[Compound 29]", "IC50": "> 10"}
{"smiles": "C=CCn1c(=O)c(C(=O)Nc2nc(CC(=O)OCC)cs2)c(O)c2ccccc21", "note": "[Compound 31]", "IC50": "> 10"}
{"smiles": "CCCCn1c(=O)c(C(=O)Nc2nc(CC(=O)OCC)cs2)c(O)c2ccccc21", "note": "[Compound 32]", "IC50": "> 10"}
{"smiles": "CCOc1ccc2nc(NC(=N)/N=C(\\C)c3ccccc3C(=O)O)nc(C)c2c1", "note": "[Compound 34]", "IC50": 10}
{"tested_on": "NIH3T3", "test": "MTT cytotoxicity assay (Example 1)", "type": "cell-based, mouse", "details": "Mus musculus, NIH3T3, 72 h", "from_the_text": "as §1, §2, §3", "units": {"IC50": "µM"}}
{"smiles": "O=C(O)c1cccc(-c2ccc(C=NNc3nc4nonc4nc3Nc3ccc(F)cc3)o2)c1", "note": "[Compound 15]", "IC50": 10}
{"smiles": "C1C2CC3CC1CC(C2)C3Nc1nc2nonc2nc1NC1C2CC3CC(C2)CC1C3", "note": "(centres unmarked) [Compound 24]", "IC50": 9}
{"smiles": "CCCn1c(=O)c(C(=O)NNC(=O)COc2ccccc2)c(O)c2ccccc21", "note": "[Compound 25]", "IC50": "> 10"}
{"smiles": "CCCCCCc1nc2ccccc2c(=O)n1NC(=O)c1c(O)c2ccccc2n(CC)c1=O", "note": "[Compound 26]", "IC50": 20}
{"smiles": "CCCc1nc2ccccc2c(=O)n1NC(=O)c1c(O)c2cccc3c2n(c1=O)CCC3", "note": "[Compound 27]", "IC50": 12}
{"smiles": "CCCn1c(=O)c(C(=O)Nc2nnc(CC(C)C)s2)c(O)c2ccccc21", "note": "[Compound 29]", "IC50": "> 10"}
{"smiles": "C=CCn1c(=O)c(C(=O)Nc2nc(CC(=O)OCC)cs2)c(O)c2ccccc21", "note": "[Compound 31]", "IC50": "> 10"}
{"smiles": "CCCCn1c(=O)c(C(=O)Nc2nc(CC(=O)OCC)cs2)c(O)c2ccccc21", "note": "[Compound 32]", "IC50": 8}
{"smiles": "CCOc1ccc2nc(NC(=N)/N=C(\\C)c3ccccc3C(=O)O)nc(C)c2c1", "note": "[Compound 34]", "IC50": "> 10"}
